The values below come from patent publication EP3319959B1, “HETERO-HALO INHIBITORS OF HISTONE DEACETYLASE” (Alkermes, Inc., priority 2015, dated 2017).

Where only a bound is given, the exact number is not on record here.

Assay type in all cases: binding
Assay [1] addresses T1, HDAC2 (Homo sapiens, UniProt Q92769).
T1 construct: purchased Proteros
Briefly: Reporter displacement assay (HDAC2). As to conditions: 20 nM HDAC2, 180 nM reporter probe, read after 4 hours; Kd by Cheng Prusoff equation. As for the experimental part: HDAC2 containing a C-terminal HIS-Tag (Proteros) and fluorescently-labeled anti-HIS-antibody are diluted in one vial in assay buffer 50 mM Tris, pH 8.0, 1 mM DTT, 150 mM NaCl, and 0.01% Tween20. Components are pre-incubated for 30 min, then a small volume of reporter probe (Proteros) is added from a highly concentrated stock and incubation is continued for another 30 min. […] Ten µl/well of pre-formed complex are transferred into 384 well assay plates (Corning). Compounds to be profiled are serially diluted from 1x10^1 - 5.7x10^-5 mM in DMSO and 60 nl are added to assay plates by pintool transfer (CybiWell, Cybio). Fluorescence intensity signal is read after 4 hours in a Pherastar FS (BMG Labtech) at 337/665 nm. For Kd determination, percent probe displacement values are calculated for each compound concentration and plotted against the compound concentration. […] Since the reporter probe is used at a concentration reflecting its own Kd value, compound Kd values can be calculated according to the Cheng Prusoff equation. […] Table 4. HDAC1 and HDAC2 Kd Values for Exemplary Compounds Useful in the Invention

The target of assay [2] is T1, HDAC2. Briefly: Reporter displacement assay (HDAC2).
Assay [3] concerns the target HDAC1 (Homo sapiens, UniProt Q13547). Briefly: Reporter displacement assay (HDAC1).

T1 sequence (Q92769 whole entry): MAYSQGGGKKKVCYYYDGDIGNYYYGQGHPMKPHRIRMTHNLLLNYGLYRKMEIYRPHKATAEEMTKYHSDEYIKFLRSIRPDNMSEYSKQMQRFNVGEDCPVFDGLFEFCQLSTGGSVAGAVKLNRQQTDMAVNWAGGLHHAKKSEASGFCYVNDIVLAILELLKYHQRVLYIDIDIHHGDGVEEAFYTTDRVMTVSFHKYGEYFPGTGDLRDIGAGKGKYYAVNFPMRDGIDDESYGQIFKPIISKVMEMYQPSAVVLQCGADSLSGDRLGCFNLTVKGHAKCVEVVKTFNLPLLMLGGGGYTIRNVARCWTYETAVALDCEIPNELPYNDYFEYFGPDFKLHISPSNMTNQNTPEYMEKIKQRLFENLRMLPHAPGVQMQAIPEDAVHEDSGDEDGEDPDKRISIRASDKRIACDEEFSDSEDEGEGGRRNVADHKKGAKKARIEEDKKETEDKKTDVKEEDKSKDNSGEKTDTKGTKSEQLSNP
Sequence of HDAC1 (Q13547 whole entry): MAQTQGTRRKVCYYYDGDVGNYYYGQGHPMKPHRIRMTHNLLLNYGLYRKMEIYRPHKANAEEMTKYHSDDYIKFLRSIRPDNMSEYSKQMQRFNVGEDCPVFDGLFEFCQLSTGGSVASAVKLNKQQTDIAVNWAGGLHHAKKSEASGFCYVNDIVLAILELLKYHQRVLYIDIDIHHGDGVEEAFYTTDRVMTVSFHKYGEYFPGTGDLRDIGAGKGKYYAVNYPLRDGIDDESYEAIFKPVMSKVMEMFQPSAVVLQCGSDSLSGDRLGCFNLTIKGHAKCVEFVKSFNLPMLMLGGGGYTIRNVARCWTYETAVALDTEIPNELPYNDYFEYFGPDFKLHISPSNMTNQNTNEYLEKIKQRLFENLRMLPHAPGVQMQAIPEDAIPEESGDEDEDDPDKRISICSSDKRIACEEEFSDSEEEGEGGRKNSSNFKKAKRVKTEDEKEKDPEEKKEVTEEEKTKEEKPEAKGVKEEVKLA

As for `Nc1cc(F)c(-c2ccc(F)cc2)cc1NC(=O)N1Cc2ccncc2C1` [Compound 100], the equilibrium dissociation constant (Kd) in assay [1] and in assay [3] was 0.1 to 0.5 µM throughout. In addition, the residence time is 703 min in assay [2] and 196 min in assay [3].

In the case of `Nc1nn(-c2ccncc2)cc1NC(=O)N1Cc2ccncc2C1` [Compound 103], the dissociation constant Kd in assay [1] and in assay [3] was more than 5 µM in each case.

For `Nc1ncc(-c2ccc(F)cc2)cc1NC(=O)N1CC2CCCC2C1` (stereo not drawn) [Compound 104], the Kd in assay [1] and in assay [3] was more than 5 µM in each case.

As to `Nc1cnc(-c2ccc(F)cc2)cc1NC(=O)N1CCCC1` [Compound 105], the equilibrium dissociation constant (Kd) in assay [1] and in assay [3] was 0.5 to 5 µM throughout. Also, the residence time in assay [2] is 634 min; in assay [3] it was 851 min.

In turn, `Nc1cnc(-c2ccc(F)cc2)cc1NC(=O)C1CCOCC1` [Compound 106] came in with a Kd in assay [1] of more than 5 µM. In assay [3], this compound gave a Kd of more than 5 µM and a residence time of 121 min.

On to `Nc1ccc(-c2ccc(F)cc2)nc1NC(=O)N1CCCC1` [Compound 107], for which the Kd in assay [1] and in assay [3] was 0.5 to 5 µM in each case. Moreover, the residence time is 1280 min in assay [2] and 653 min in assay [3].

Take `Nc1cnc(-c2ccncc2)cc1NC(=O)N1CCCC1` [Compound 108]: the Kd in assay [1] and in assay [3] was 0.5 to 5 µM throughout. For the same compound, the residence time in assay [2] worked out at 1430 min; in assay [3], 401 min.

Take `Nc1ccc(-c2ccc(F)cc2)nc1NC(=O)C1CCOCC1` [Compound 109]: the Kd in assay [1] was 0.5 to 5 µM; in assay [3] it was more than 5 µM. The residence time worked out at 264 min in assay [2] and 14 min in assay [3].

With `Nc1cnc(-c2ccc(F)cc2)nc1NC(=O)N1CCCC1` [Compound 110], the figures for the dissociation constant Kd in assay [1] and in assay [3] were more than 5 µM and 0.5 to 5 µM, respectively. For the same compound, in assay [3], the residence time was 688 min.

Turning to `Nc1ccc(-c2ccncc2)nc1NC(=O)N1CCCC1` [Compound 111], the Kd in assay [1] and in assay [3] was more than 5 µM in each case. The residence time turned out to be 540 min in assay [2] and 151 min in assay [3].

As to `Nc1ccc(-c2ccc(F)cc2)c(F)c1NC(=O)N1CCCC1` [Compound 112], the Kd in assay [1] and in assay [3] was 0.1 to 0.5 µM in each case. For the same compound, the residence time came out at 790 min in assay [2] and 329 min in assay [3].

For `Nc1ccc(-c2ccc(F)cc2)c(F)c1NC(=O)N1Cc2nccnc2C1` [Compound 113], the results for the Kd in assay [1] and in assay [3] were 0.1 to 0.5 µM and less than 0.1 µM, respectively. Moreover, the results for the residence time in assay [2] and in assay [3] were 609 min and 350 min, respectively.

As for `Nc1cc(F)c(-c2ccc(F)cc2)cc1NC(=O)N1CCCC1` [Compound 114], the Kd in assay [1] is more than 5 µM. Also, in assay [3], the Kd is more than 5 µM and the residence time was 49 min.

On to `Nc1cc(F)c(-c2ccc(F)cc2)cc1NC(=O)C1CCOCC1` [Compound 115], for which the Kd was 0.5 to 5 µM in assay [1] and more than 5 µM in assay [3]. For the same compound, the residence time in assay [2] was 185 min.

Consider `Nc1cc(F)c(-c2ccc(F)c(F)c2)cc1NC(=O)N1CCCC1` [Compound 116], for which the dissociation constant Kd in assay [1] and in assay [3] was 0.5 to 5 µM in each case. Besides, the residence time in assay [2] is 114 min; in assay [3], 87 min.

`Nc1ccc(-c2ccc(F)c(F)c2)c(F)c1NC(=O)N1CCCC1` [Compound 117]: the Kd in assay [1] and in assay [3] was more than 5 µM each time. Also, in assay [2], the residence time came out at 42 min.

Consider `Nc1ccc(-c2ccc(F)cc2)c(F)c1NC(=O)C1CCOCC1` [Compound 118], for which the Kd in assay [1] and in assay [3] was 0.5 to 5 µM in each case. The residence time in assay [2] was determined as 176 min; in assay [3] it was 69 min.

As to `Nc1cc(F)c(-c2ccc(F)cc2)cc1NC(=O)N1Cc2nccnc2C1` [Compound 119], the Kd in assay [1] and in assay [3] was 0.1 to 0.5 µM in each case. The residence time in assay [2] came to 1200 min; in assay [3], 126 min.

In the case of `Nc1ccc(-c2ccc(F)cc2)nc1NC(=O)N1Cc2nccnc2C1` [Compound 120], the results for the Kd in assay [1] and in assay [3] were 0.5 to 5 µM and 0.1 to 0.5 µM, respectively. In addition, the residence time in assay [2] was determined as 1170 min; in assay [3] it was 830 min.

In the case of `Nc1cnc(-c2ccc(F)cc2)nc1NC(=O)N1Cc2nccnc2C1` [Compound 121], the figures for the Kd in assay [1] and in assay [3] were more than 5 µM and 0.5 to 5 µM, respectively. Also, the figures for the residence time in assay [2] and in assay [3] were 1200 min and 682 min, respectively.

Take `Nc1cn(-c2ccccc2)nc1NC(=O)N1Cc2ccncc2C1` [Compound 122]: the Kd in assay [1] and in assay [3] was 0.1 to 0.5 µM each time. For the same compound, the residence time in assay [2] came out at 2380 min; in assay [3], 572 min.
